According to patent publication US20260226493A1, “HERBICIDE RESISTANT PLANTS” (SYNGENTA CROP PROTECTION AG, priority 2023, published 2026):

Assays:
Chroococcidiopsis BioA = experiment: BioA enzyme activity with DMSO or herbicide in vitro; type: biochemical, Chroococcidiopsis sp. CCMEE 29; conditions: spermidine in substrate mix
From the text: (§1) A pet-24 plasmid containing a DNA sequence encoding each identified variant mutant of BIO3-BIO1 derived from Arabidopsis thaliana from example 5 above, as shown in Table 13 below and as shown in full in SEQ ID NOs: 15 to 155, codon-optimised for expression in E. coli, with an N-terminal 6×His-tag and thrombin cleavage site and under control of a T7 promoter, and was synthesised by Twist Bioscience, in a similar manner to SEQ ID NO:311. These plasmids were then expressed in E. coli BL21 (DE3) bioA with 50 μg/mL kanamycin and 25 μg/mL chloramphenicol selection. Overnight cultures grown at 37° C. were used to inoculate 8×500 mL AIM in shake flasks at a ratio of 1:100. Cultures were grown at 37° C., 200 rpm for 3.5 hours and then overnight at 20° C. Cells were harvested by centrifugation for 30 minutes at 10 000 g. Cells were stored at −80° C. until extraction. 30 g of cell pellet from was thawed in 120 mL of IMAC buffer A (20 mM HEPES pH7.5, 25 mM imidazole, 500 mM sodium chloride, 0.15 mM pyridoxal phosphate, 0.5 mM TCEP, 1× complete Protease Inhibitor Tablet (Roche)). The resuspension was passed through a cell disrupter at 18 000 PSI and centrifuged at 50 000 g for 25 minutes at 4° C. The His-tagged BIO3-BIO1 protein was purified from the extract supernatant on an AKTA avant chromatography system (Cytiva) using a HisTrap FF column and eluted in IMAC buffer B ((20 mM HEPES pH7.5, 500 mM imidazole, 500 mM sodium chloride, 0.15 mM pyridoxal phosphate, 0.5 mM TCEP) followed by SEC using a HiLoad 26/60 Superdex200 column in SEC buffer (25 mM HEPES pH7.5, 150 mM sodium chloride, 0.15 mM pyridoxal phosphate, 0.5 mM TCEP). Protein concentration was measured and calculated using the absorbance at 280 nm. Extracts were diluted 1 in 4 and 10 uL was analysed by SDS PAGE.
(§2) To measure BIO3-BIO1 mutant enzyme activity in the presence of herbicide, herbicides were incubated with 20 μL of enzyme mix (100 mM EPPS pH 8.6, 0.1 mM pyridoxal phosphate, 0.1 mg/mL BSA, 50 nM BIO3-BIO1 enzyme) for 10 minutes at 20° C. in a well of a 96-well half-area black plate, followed by the addition of 20 μL of substrate mix (final concentration of 100 mM EPPS pH 8.6, 0.1 mM pyridoxal phosphate, 0.1 mg/mL BSA, 100 μM spermidine, 20 μM KAPA, 100 mM NaCO3) and further incubation for 75 minutes at 20° C. The reaction was terminated by the addition of 50 μL of derivatisation mix (final concentration of 250 mM borate NaOH pH 9.4, 3.6 mM o-phthalaldehyde, 7 mM β-mercaptoethanol, 17% (v/v) ethanol, 3.6% (v/v) methanol). The fluorescent product produced by the reaction of DAPA with o-phthalaldehyde and 7 mM β-mercaptoethanol was measured at 470 nm after excitation at 410 nm. The percentage inhibition was calculated as the activity in the presence of one of three concentrations of each herbicide compound A to M (note that the compounds labelled as A to M are identified hereinabove in the relevant section of the description) as a percentage of the activity in DMSO (Table 12 and 13). The percentage activity versus WT was also calculated and is shown in Table 13 and 14 (NT indicates mutation not tested in table 13, note that these mutations are tested at different compound concentrations for compounds L, M and C, and the results are shown in table 14).
(§3) Protein of Escherichia coli BioA (SEQ ID NO:159), Pantoea ananatis BioA (SEQ ID NO:167), Streptomyces viridochromogenes BioA (SEQ ID NO:170), Cryptosporidium andersoni BioA (SEQ ID NO:160), Stenotrophomonas maltophilia BioA (SEQ ID NO:171), Chroococcidiopsis BioA (SEQ ID NO:184), Pedobacter hartonius BioA (SEQ ID NO:181), Chitinophaga filiformis BioA (SEQ ID NO:180), Tenacibaculum adriaticum BioA (SEQ ID NO:185) and Bacillus subtilis BioA (SEQ ID NO:166) was prepared using the method in Example 6. BioA enzyme activity in the presence of herbicide or DMSO in vitro for each of the proteins was assayed according to the enzyme assay method in Example 6, except in some reactions spermidine was replaced with 2 mM S-Adenosyl methionine.

[1] = system: Stenotrophomonas maltophilia BioA; experiment: as above; type: biochemical; conditions: spermidine in substrate mix
From the text: as §1, §2, §3

Escherichia coli BioA = target: T1, Escherichia coli BioA (Escherichia coli, UniProt P12995); experiment: as above; type: biochemical; conditions: SAM in substrate mix, read-out: % Inhibition relative to DMSO treatment
T1 construct: 6xHis-tag (N); thrombin cleavage site (N); made in house; host or cells: E. coli BL21 (DE3) bioA
From the text: as §1, §2, §3

[2] = system: Tenacibaculum adriaticum BioA; experiment: as above; type: biochemical; conditions: spermidine in substrate mix
From the text: as §1, §2, §3

[3] = system: Streptomyces viridochromogenes BioA; experiment: as above; type: biochemical; conditions: SAM in substrate mix
From the text: as §1, §2, §3

Pantoea ananatis BioA = experiment: as above; type: biochemical; conditions: SAM in substrate mix
From the text: as §1, §2, §3

Bacillus subtilis BioA = experiment: as above; type: biochemical; conditions: spermidine in substrate mix
From the text: as §1, §2, §3

[4] = system: Chitinophaga filiformis BioA; experiment: as above; type: biochemical; conditions: spermidine in substrate mix
From the text: as §1, §2, §3

[5] = system: Pedobacter hartonius BioA; experiment: as above; type: biochemical; conditions: spermidine in substrate mix
From the text: as §1, §2, §3

Quercus robur BioDA = experiment: BioDA enzyme activity with DMSO or herbicide in vitro; type: biochemical; conditions: Quercus robur BioDAΔMTP
From the text: as §1, §2
(§4) The activity of various wild-type BioDA and variant enzymes was also tested when treated with DMSO or herbicide in vitro.
(§5) Protein of Schizosaccharomyces japonicus BioDA (SEQ ID NO:13), Nannochloropsis gaditana BioDA (SEQ ID NO:3), Selaginella moellendorffii BioDA (SEQ ID NO:319), Quercus robur BioDA (SEQ ID NOA11), Ostreococcus tauri BioDA (SEQ ID NO:9), and the variants of Ostreococcus tauri BioDA A374D, F332A and P407A (SEQ ID Nos:321-323) was prepared using the method in Example 6. BioDA enzyme activity in the presence of herbicide or DMSO in vitro for each of the proteins was assayed according to the enzyme assay method above. The results are shown in Table 26 provided below in the “TABLES” section.

[6] = system: Schizosaccharomyces japonicus BioDA; experiment: as above; type: biochemical
From the text: as §1, §2, §4, §5

T1 sequence (P12995 whole entry): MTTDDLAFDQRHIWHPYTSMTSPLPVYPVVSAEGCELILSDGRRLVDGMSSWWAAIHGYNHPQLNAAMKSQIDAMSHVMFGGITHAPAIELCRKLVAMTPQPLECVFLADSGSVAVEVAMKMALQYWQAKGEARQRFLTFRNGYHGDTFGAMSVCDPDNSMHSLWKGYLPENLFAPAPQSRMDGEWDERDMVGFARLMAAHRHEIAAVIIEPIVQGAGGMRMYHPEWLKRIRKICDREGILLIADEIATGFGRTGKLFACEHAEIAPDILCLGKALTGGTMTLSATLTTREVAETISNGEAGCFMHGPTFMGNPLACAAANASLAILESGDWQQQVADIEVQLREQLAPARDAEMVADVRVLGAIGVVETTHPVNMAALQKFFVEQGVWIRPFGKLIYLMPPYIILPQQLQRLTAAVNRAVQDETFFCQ

SMILES: CC(O)C(N)CCCCC(=O)O.Cl (stereo not drawn) [Compound B, [5-carboxy-1-(1-hydroxyethyl)pentyl]ammonium chloride]
- % Inhibition relative to DMSO treatment (Chroococcidiopsis BioA; 200 μM): 99%
- % Inhibition relative to DMSO treatment ([1]; 200 μM): 50%
- inhibition at 31 µM (Escherichia coli BioA): 4%
- inhibition at 200 µM (Escherichia coli BioA): 9%
- inhibition at 500 µM (Escherichia coli BioA): 23%
- % Inhibition relative to DMSO treatment ([2]; 200 μM): 18%
- % Inhibition relative to DMSO treatment ([3]; 200 μM): 0%
- % Inhibition relative to DMSO treatment (Pantoea ananatis BioA; 200 μM): 15%
- % Inhibition relative to DMSO treatment (Bacillus subtilis BioA; 200 μM): 0%
- % Inhibition relative to DMSO treatment ([4]; 200 μM): 12%
- % Inhibition relative to DMSO treatment ([5]; 200 μM): 96%
- % Inhibition relative to DMSO treatment (Quercus robur BioDA; 200 μM): 93%
- % Inhibition relative to DMSO treatment ([6]; 200 μM): 70%

SMILES: CCn1c(Cn2ccc(C(F)(F)F)n2)cc(=O)c(C(=O)O)c1-c1ccc(Cl)c(Cl)c1 [Compound L, 2-(3,4-dichlorophenyl)-1-ethyl-4-oxo-6-[[3-(trifluoromethyl)pyrazol-1-yl]methyl]pyridine-3-carboxylic acid]
- % Inhibition relative to DMSO treatment (Chroococcidiopsis BioA; 0.5 μM): 15%
- % Inhibition relative to DMSO treatment ([1]; 0.5 μM): 0%
- % Inhibition relative to DMSO treatment ([1]; 31 μM): 0%
- % Inhibition relative to DMSO treatment ([1]; 500 μM): 16%
- inhibition at 0.5 µM (Escherichia coli BioA): 4%
- inhibition at 31 µM (Escherichia coli BioA): 8%
- inhibition at 500 µM (Escherichia coli BioA): 35%
- % Inhibition relative to DMSO treatment ([2]; 0.5 μM): 16%
- % Inhibition relative to DMSO treatment ([3]; 0.5 μM): 0%
- % Inhibition relative to DMSO treatment ([3]; 31 μM): 16%
- % Inhibition relative to DMSO treatment ([3]; 500 μM): 34%
- % Inhibition relative to DMSO treatment (Pantoea ananatis BioA; 0.5 μM): 9%
- % Inhibition relative to DMSO treatment (Pantoea ananatis BioA; 31 μM): 0%
- % Inhibition relative to DMSO treatment (Pantoea ananatis BioA; 500 μM): 23%
- % Inhibition relative to DMSO treatment (Bacillus subtilis BioA; 0.5 μM): 0%
- % Inhibition relative to DMSO treatment ([4]; 0.5 μM): 11%
- % Inhibition relative to DMSO treatment ([5]; 0.5 μM): 2%
- % Inhibition relative to DMSO treatment (Quercus robur BioDA; 0.5 μM): 83%
- % Inhibition relative to DMSO treatment ([6]; 0.5 μM): 0%
- % Inhibition relative to DMSO treatment ([6]; 31 μM): 55%
- % Inhibition relative to DMSO treatment ([6]; 500 μM): 94%

SMILES: CCn1c(C)c(-c2ccc(F)cc2F)c(=O)c(C(=O)O)c1-c1ccc(Cl)c(Cl)c1 [Compound C, 2-(3,4-dichlorophenyl)-5-(2,4-difluorophenyl)-1-ethyl-6-methyl-4-oxo-pyridine-3-carboxylic acid]
- % Inhibition relative to DMSO treatment (Chroococcidiopsis BioA; 0.5 μM): 2%
- % Inhibition relative to DMSO treatment ([1]; 0.5 μM): 0%
- inhibition at 0.5 µM (Escherichia coli BioA): 8%
- % Inhibition relative to DMSO treatment ([2]; 0.5 μM): 19%
- % Inhibition relative to DMSO treatment ([3]; 0.5 μM): 0%
- % Inhibition relative to DMSO treatment (Pantoea ananatis BioA; 0.5 μM): 11%
- % Inhibition relative to DMSO treatment (Bacillus subtilis BioA; 0.5 μM): 0%
- % Inhibition relative to DMSO treatment ([4]; 0.5 μM): 12%
- % Inhibition relative to DMSO treatment ([5]; 0.5 μM): 0%
- % Inhibition relative to DMSO treatment (Quercus robur BioDA; 0.5 μM): 32%
- % Inhibition relative to DMSO treatment ([6]; 0.5 μM): 17%

SMILES: CCn1c(C)c(-c2cc(OC(F)(F)F)ccc2Cl)c(=O)c(C(=O)O)c1-c1ccc(Cl)c(Cl)c1 [Compound D, 5-[2-chloro-5-(trifluoromethoxy)phenyl]-2-(3,4-dichlorophenyl)-1-ethyl-6-methyl-4-oxo-pyridine-3-carboxylic acid]
- % Inhibition relative to DMSO treatment (Chroococcidiopsis BioA; 0.5 μM): 0%
- % Inhibition relative to DMSO treatment ([1]; 0.5 μM): 76%
- inhibition at 0.5 µM (Escherichia coli BioA): 6%
- % Inhibition relative to DMSO treatment ([2]; 0.5 μM): 5%
- % Inhibition relative to DMSO treatment ([3]; 0.5 μM): 0%
- % Inhibition relative to DMSO treatment (Pantoea ananatis BioA; 0.5 μM): 6%
- % Inhibition relative to DMSO treatment (Bacillus subtilis BioA; 0.5 μM): 0%
- % Inhibition relative to DMSO treatment ([4]; 0.5 μM): 0%
- % Inhibition relative to DMSO treatment ([5]; 0.5 μM): 7%
- % Inhibition relative to DMSO treatment (Quercus robur BioDA; 0.5 μM): 88%
- % Inhibition relative to DMSO treatment ([6]; 0.5 μM): 87%

SMILES: CCOC(=O)c1nn(-c2ccc3c(c2)OC(F)(F)C(F)(F)O3)c2cccc(C(C)=O)c2c1=O [Compound A, ethyl 5-acetyl-4-oxo-1-(2,2,3,3-tetrafluoro-1,4-benzodioxin-6-yl)cinnoline-3-carboxylate]
- % Inhibition relative to DMSO treatment (Chroococcidiopsis BioA; 25 μM): 0%
- % Inhibition relative to DMSO treatment ([1]; 25 μM): 0%
- inhibition at 25 µM (Escherichia coli BioA; 25 μM): 6%
- % Inhibition relative to DMSO treatment ([2]; 25 μM): 14%
- % Inhibition relative to DMSO treatment ([3]; 25 μM): 0%
- % Inhibition relative to DMSO treatment (Pantoea ananatis BioA; 25 μM): 7%
- % Inhibition relative to DMSO treatment (Bacillus subtilis BioA; 25 μM): 0%
- % Inhibition relative to DMSO treatment ([4]; 25 μM): 0%
- % Inhibition relative to DMSO treatment ([5]; 25 μM): 6%
- % Inhibition relative to DMSO treatment (Quercus robur BioDA; 25 μM): 72%
- % Inhibition relative to DMSO treatment ([6]; 25 μM): 2%

SMILES: C[C@@H](N)COc1cccc(C(=O)O)n1.Cl.Cl [Compound E, [(1R)-2-(6-carboxypyridin-1-ium-2-yl)oxy-1-methyl-ethyl]ammonium dichloride]
- % Inhibition relative to DMSO treatment (Chroococcidiopsis BioA; 200 μM): 26%
- % Inhibition relative to DMSO treatment ([1]; 200 μM): 74%
- inhibition at 200 µM (Escherichia coli BioA): 12%
- % Inhibition relative to DMSO treatment ([2]; 200 μM): 16%
- % Inhibition relative to DMSO treatment ([3]; 200 μM): 0%
- % Inhibition relative to DMSO treatment (Pantoea ananatis BioA; 200 μM): 15%
- % Inhibition relative to DMSO treatment (Bacillus subtilis BioA; 200 μM): 0%
- % Inhibition relative to DMSO treatment ([4]; 200 μM): 28%
- % Inhibition relative to DMSO treatment ([5]; 200 μM): 80%
- % Inhibition relative to DMSO treatment (Quercus robur BioDA; 200 μM): 96%
- % Inhibition relative to DMSO treatment ([6]; 200 μM): 28%
